Assay results reported in PubChem BioAssay AID1963969 (Molecular Pharmacology Branch, DTP, NCI, 2024).

System: 817829-284-R-J1-PDC multi-cell spheroid viability
Test: Anticancer human tumor 817829-284-R-J1-PDC patient-derived colon adenocarcinoma cell line growth inhibition [PI3K]
Details: for IC50: curve of first compound; for viability, T/C: stronger effect = lower value; active means viability on the fitted dose curve at most 10% of control; inactive means the rest
Procedure, shortened: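 Targeted small molecules plus PI3K inhibitors, half-log dose series from Cmax (default top 10 microM), were applied to heterotypic spheroids of cancer cells with HUVEC and MSCs. Viability indicated growth inhibition.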
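Further: spheroids exposed to agents for seven days before readout.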
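Wherever viability, T/C is given: percent of vehicle DMSO control viability which is 100%.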

CC1(C)CCC(Nc2ncc(C(F)(F)F)c(-c3c[nH]c4c(P(C)(C)=O)c(C#N)ccc34)n2)CN1 (configuration not stated) + Cc1nc(NC(=O)N2CCCC2C(N)=O)sc1-c1ccnc(C(C)(C)C(F)(F)F)c1
< 0.0316 µM: IC50 (second compound 0.0316 µM) | IC50 (second compound 0.1 µM) | IC50 (second compound 0.316 µM) | IC50 (second compound 1 µM) | IC50 (second compound 3.16 µM) | IC50 (second compound 10 µM)
inactive: viability, T/C (second compound 0.0316 µM, first compound 0.0316 µM) 30.4% | viability, T/C (second compound 0.0316 µM, first compound 0.1 µM) 24.9% | viability, T/C (second compound 0.0316 µM, first compound 0.316 µM) 26.7% | viability, T/C (second compound 0.0316 µM, first compound 1 µM) 32.1% | viability, T/C (second compound 0.0316 µM, first compound 3.16 µM) 30.8% | viability, T/C (second compound 0.0316 µM, first compound 10 µM) 1.2% | viability, T/C (second compound 0.1 µM, first compound 0.0316 µM) 27.2% | viability, T/C (second compound 0.1 µM, first compound 0.1 µM) 24.7% | viability, T/C (second compound 0.1 µM, first compound 0.316 µM) 32.2% | viability, T/C (second compound 0.1 µM, first compound 1 µM) 39.8% | viability, T/C (second compound 0.1 µM, first compound 3.16 µM) 28.7% | viability, T/C (second compound 0.1 µM, first compound 10 µM) 1.28% | viability, T/C (second compound 0.316 µM, first compound 0.0316 µM) 25% | viability, T/C (second compound 0.316 µM, first compound 0.1 µM) 27.7% | viability, T/C (second compound 0.316 µM, first compound 0.316 µM) 26.9% | viability, T/C (second compound 0.316 µM, first compound 1 µM) 25.9% | viability, T/C (second compound 0.316 µM, first compound 3.16 µM) 32.7% | viability, T/C (second compound 0.316 µM, first compound 10 µM) 1.02% | viability, T/C (second compound 1 µM, first compound 0.0316 µM) 26.6% | viability, T/C (second compound 1 µM, first compound 0.1 µM) 26.6% | viability, T/C (second compound 1 µM, first compound 0.316 µM) 31.8% | viability, T/C (second compound 1 µM, first compound 1 µM) 33.4% | viability, T/C (second compound 1 µM, first compound 3.16 µM) 30.6% | viability, T/C (second compound 1 µM, first compound 10 µM) 1.41% | viability, T/C (second compound 3.16 µM, first compound 0.0316 µM) 29.6% | viability, T/C (second compound 3.16 µM, first compound 0.1 µM) 26.2% | viability, T/C (second compound 3.16 µM, first compound 0.316 µM) 28.6% | viability, T/C (second compound 3.16 µM, first compound 1 µM) 28.7% | viability, T/C (second compound 3.16 µM, first compound 3.16 µM) 29% | viability, T/C (second compound 3.16 µM, first compound 10 µM) 0.82% | viability, T/C (second compound 10 µM, first compound 0.0316 µM) 23.9% | viability, T/C (second compound 10 µM, first compound 0.1 µM) 28.4% | viability, T/C (second compound 10 µM, first compound 0.316 µM) 24.6% | viability, T/C (second compound 10 µM, first compound 1 µM) 21.3% | viability, T/C (second compound 10 µM, first compound 3.16 µM) 21.2%
active: viability, T/C (second compound 10 µM, first compound 10 µM) 0.69%
